Experimental data: patent publication US10786477B2, “Formulations having anti-inflammatory activity and antimicrobial activity against gram-positive bacteria” (NATUREZA, INC., priority 2014, dated 2020)
Converted amounts (≈) assume the structure as drawn. Read-outs that look alike come from different tables or passages of the source.

Key:
[1] = test system: E coli; experiment: MIC, CLSI broth microdilution M07; assay type: cell-based, Escherichia coli
[2] = test system: C. difficile; experiment: MIC, CLSI broth microdilution M07; assay type: cell-based, Clostridium difficile
[3] = test system: S. pyogenes; experiment: MIC, CLSI broth microdilution M07; assay type: cell-based, Streptococcus pyogenes
[4] = test system: S. mitis; experiment: MIC, CLSI broth microdilution M07; assay type: cell-based, Streptococcus mitis
[5] = test system: S. mutans; experiment: MIC, CLSI broth microdilution M07; assay type: cell-based, Streptococcus mutans
[6] = test system: S. aureus; experiment: MIC, CLSI broth microdilution M07; assay type: cell-based, Staphylococcus aureus
[7] = test system: S. epidemidis; experiment: MIC, CLSI broth microdilution M07; assay type: cell-based, Staphylococcus epidermidis
[8] = test system: Lactobacillus spp.; experiment: MIC, CLSI broth microdilution M07; assay type: cell-based
[9] = test system: Bifidobacterium; experiment: MIC, CLSI broth microdilution M07; assay type: cell-based
[10] = test system: Candida; experiment: MIC of fungi, CLSI broth microdilution M27; assay type: cell-based
[11] = test system: Mycobacterium; experiment: MIC, CLSI broth microdilution; assay type: cell-based; settings: Table 1; active component in compositions of first example; range 0.08-5 wt.%
[12] = test system: L. acidophilus; experiment: MIC, CLSI broth microdilution M07; assay type: cell-based; settings: Lactobacillus acidophilus; Table 2; active component range 0.08-8 mg/ml; >8 = no inhibitory effect
[13] = test system: B. bifidum; experiment: MIC, CLSI broth microdilution M07; assay type: cell-based; settings: Bifidobacterium bifidum; Table 2; active component range 0.08-8 mg/ml; >8 = no inhibitory effect
[14] = test system: C. albicans; experiment: MIC of fungi, CLSI broth microdilution M27; assay type: cell-based; settings: Candida albicans; Table 2; active component range 0.08-8 mg/ml
[15] = test system: M. bovis; experiment: microbe, parasite or virus in culture; assay type: cell-based
[16] = test system: strains of Staphylococcus; experiment: Bacterial growth in presence of first-example suspensions; assay type: cell-based, Staphylococcus spp.; settings: first example: optically clear suspensions of 1 wt.% active component combined with 2% bile
From the text: In these examples, the optically clear suspensions were combined with 2% bile when evaluating activity against various bacteria.

[17] = test system: bacteria; settings: background, cited from earlier work; for antibacterial / antimicrobial activity: compared with lauric acid
[18] = Escherichia coli, Table 2, active component range 0.08-8 mg/ml, >8 = no inhibitory effect, read-out: MIC
[19] = Table 1, active component in compositions of first example, range 0.08-5 wt.%, >>5% = no inhibitory effect
[20] = Table 3, active component range 0.0009-8 μg/ml, values match chitosan-coated liposomes of third example
[21] = Clostridioides difficile, Table 2, active component range 0.08-8 mg/ml, read-out: MIC
[22] = Table 1, active component in compositions of first example, range 0.08-5 wt.%
[23] = Streptococcus mutans, Table 2, active component range 0.08-8 mg/ml, read-out: MIC
[24] = Staphylococcus aureus, Table 2, active component range 0.08-8 mg/ml, read-out: MIC
[25] = Mycobacterium tuberculosis variant bovis

Row | SMILES | MIC [1, 18] [µg/mL] | MIC [1, 19] | MIC [1, 20] | MIC [2, 21] [µg/mL] | MIC [2, 22] [%] | MIC [2, 20] [%] | MIC [3, 22] [%] | MIC [3, 20] [%] | MIC [4, 22] [%] | MIC [4, 20] [%] | MIC [5, 23] [µg/mL] | MIC [5, 22] [%] | MIC [5, 20] [%] | MIC [6, 24] [µg/mL] | MIC [6, 22] [%] | MIC [6, 20] [%] | MIC [7, 22] [%] | MIC [7, 20] [%] | MIC [8, 19] | MIC [8, 20] | other results
1 | CCCCCCCCCCCC(=O)OCC [EL, ethyl laurate] | > 8000 | >>5%^ | >>5% | 800 (≈ 3.5 mM) | 0.5 | 0.0018 | 0.5 | 0.0018 | 0.5 | 0.0018 | 800 (≈ 3.5 mM) | 0.5 | 0.0018 | 800 (≈ 3.5 mM) | 0.5 | 0.0018 | 0.5 | 0.0018 | >>5%^ | >>5% | MIC [9, 19]: >>5%^; MIC [9, 20]: >>5%; MIC [10, 22]: 0.5%; MIC [10, 20]: 0.0018%; MIC [11]: 1%; MIC [12]: > 8000 µg/mL; MIC [13]: > 8000 µg/mL; MIC [14]: < 80 µg/mL; MIC [15, 25]: 2000 µg/mL (≈ 8.76 mM); MIC [15, 20]: 0.0018%; effect on bacterial growth [16]: completely bacteriostatic; activity relative to lauric acid (times less active) [17]: forty times less active; antibacterial / antimicrobial activity [17]: little or no antimicrobial activity
2 | CCCCCCCCCCCC(=O)OC [ML, methyl laurate] | > 8000 | >>5%^ | >>5% | 800 (≈ 3.73 mM) | 1 | 0.0018 | 0.5 | 0.0018 | 0.5 | 0.0018 | 800 (≈ 3.73 mM) | 0.5 | 0.0018 | 800 (≈ 3.73 mM) | 0.5 | 0.0018 | 0.5 | 0.0018 | >>5%^ | >>5% | MIC [9, 19]: >>5%^; MIC [9, 20]: >>5%; MIC [10, 22]: 0.5%; MIC [10, 20]: 0.0018%; MIC [11]: 0.5%; MIC [12]: > 8000 µg/mL; MIC [13]: > 8000 µg/mL; MIC [14]: < 80 µg/mL; MIC [15, 25]: 2000 µg/mL (≈ 9.33 mM); MIC [15, 20]: 0.0018%; effect on bacterial growth [16]: significantly retarded bacterial growth; antibacterial / antimicrobial activity [17]: some modest antibacterial activity in vitro
